Assays:
Type in all cases: biochemical
Porcine Atria myofibrils = experiment: Myofibril ATPase assay (PK/LDH NADH-coupled), atria myofibrils
Outline: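 Values are EC25% (and, for inhibitors, EC50%) from 4-parameter logistic fits of activity normalized to vehicle wells. Rates came from linear regression of 340 nm kinetic reads (every 1.5-2 min, 75 min) of NADH-coupled ATP turnover by porcine atria myofibrils.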

[1] = biological target: T1, Porcine Ventricle myofibrils (left ventricle of Yucatan minipigs) (Sus scrofa, UniProt P79293); experiment: Myofibril ATPase assay (PK/LDH NADH-coupled), ventricle myofibrils
T1 construct: Myofibrils from porcine cardiac muscle was isolated from the left ventricle of Yucatan minipigs; tissue Exemplar Genetics; host or cells: left ventricle of Yucatan minipigs
Outline: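 NADH depletion (A340) coupled through pyruvate kinase/lactate dehydrogenase reports ATPase rate of porcine left-ventricle myofibrils over 75 min kinetic reads. Regression slopes, vehicle-normalized, fitted by 4-parameter logistic give EC25 and, where available, EC50.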

[2] = test system: Rabbit Skeletal myofibrils (rabbit psoas muscle); experiment: Myofibril ATPase assay (PK/LDH NADH-coupled), skeletal myofibrils
Outline: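 ATPase rate taken as linear-regression slope of A340 (NADH depletion through PK/LDH coupling) over a 75 min kinetic read, with psoas-derived rabbit skeletal myofibrils at pH 7.0. Four-parameter fits of vehicle-normalized activity give EC25 and, where reached, EC50.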

T1 sequence (P79293 whole entry): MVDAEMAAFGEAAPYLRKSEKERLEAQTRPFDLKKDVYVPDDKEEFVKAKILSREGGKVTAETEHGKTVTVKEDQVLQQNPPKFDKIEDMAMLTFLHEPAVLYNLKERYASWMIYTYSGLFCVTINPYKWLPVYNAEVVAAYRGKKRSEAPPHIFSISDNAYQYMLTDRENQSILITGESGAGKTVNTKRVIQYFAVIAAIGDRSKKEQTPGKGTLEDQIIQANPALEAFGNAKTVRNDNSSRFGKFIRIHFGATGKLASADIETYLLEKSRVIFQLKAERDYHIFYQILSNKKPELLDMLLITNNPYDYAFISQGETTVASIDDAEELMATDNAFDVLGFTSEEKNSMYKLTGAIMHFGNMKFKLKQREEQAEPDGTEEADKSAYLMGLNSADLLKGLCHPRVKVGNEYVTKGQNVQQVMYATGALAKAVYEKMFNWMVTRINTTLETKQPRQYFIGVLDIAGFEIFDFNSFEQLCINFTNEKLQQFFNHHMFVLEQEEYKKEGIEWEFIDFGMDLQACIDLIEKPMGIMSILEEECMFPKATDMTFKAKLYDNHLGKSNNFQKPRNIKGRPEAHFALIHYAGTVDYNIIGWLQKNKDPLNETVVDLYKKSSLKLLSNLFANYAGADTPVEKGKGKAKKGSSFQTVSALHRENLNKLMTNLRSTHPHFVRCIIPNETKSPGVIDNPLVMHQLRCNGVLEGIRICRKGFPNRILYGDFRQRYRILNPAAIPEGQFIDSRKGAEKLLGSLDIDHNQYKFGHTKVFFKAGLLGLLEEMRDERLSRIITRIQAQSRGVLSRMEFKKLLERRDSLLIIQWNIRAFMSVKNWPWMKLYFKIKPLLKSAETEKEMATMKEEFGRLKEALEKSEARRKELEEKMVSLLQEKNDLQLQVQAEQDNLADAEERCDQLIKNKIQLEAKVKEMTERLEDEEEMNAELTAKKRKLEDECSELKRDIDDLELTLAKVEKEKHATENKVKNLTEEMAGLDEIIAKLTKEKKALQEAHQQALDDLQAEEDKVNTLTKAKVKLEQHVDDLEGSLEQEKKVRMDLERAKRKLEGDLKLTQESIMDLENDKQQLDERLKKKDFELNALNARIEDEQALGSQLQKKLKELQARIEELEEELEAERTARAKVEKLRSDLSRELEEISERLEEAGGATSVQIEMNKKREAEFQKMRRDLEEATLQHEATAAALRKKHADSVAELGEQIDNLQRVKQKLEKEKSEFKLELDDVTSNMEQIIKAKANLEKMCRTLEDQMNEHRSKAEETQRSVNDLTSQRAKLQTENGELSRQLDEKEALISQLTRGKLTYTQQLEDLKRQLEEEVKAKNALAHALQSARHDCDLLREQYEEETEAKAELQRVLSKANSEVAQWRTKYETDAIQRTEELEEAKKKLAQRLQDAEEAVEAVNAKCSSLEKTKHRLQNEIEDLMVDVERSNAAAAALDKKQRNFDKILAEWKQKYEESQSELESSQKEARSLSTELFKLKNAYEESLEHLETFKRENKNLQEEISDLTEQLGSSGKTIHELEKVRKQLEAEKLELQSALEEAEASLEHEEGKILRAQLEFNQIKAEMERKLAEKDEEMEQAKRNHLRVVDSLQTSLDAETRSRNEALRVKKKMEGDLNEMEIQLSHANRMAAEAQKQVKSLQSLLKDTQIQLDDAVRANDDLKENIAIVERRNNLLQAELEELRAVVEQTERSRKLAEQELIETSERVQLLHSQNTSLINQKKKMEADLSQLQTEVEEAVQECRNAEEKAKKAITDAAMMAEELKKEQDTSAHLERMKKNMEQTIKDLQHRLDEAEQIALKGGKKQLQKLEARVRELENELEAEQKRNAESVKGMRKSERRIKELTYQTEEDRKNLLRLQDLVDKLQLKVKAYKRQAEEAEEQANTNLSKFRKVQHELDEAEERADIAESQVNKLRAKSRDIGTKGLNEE

SMILES | Porcine Atria IC25 (Porcine Atria myofibrils; Table 8) [µM] | Porcine Ventricle IC25 ([1]; Table 8) [µM] | Rabbit Psoas IC25 ([2]; Table 8) [µM] | Porcine Atria IC25 (Porcine Atria myofibrils; Table 7) [µM] | Porcine Ventricle IC25 ([1]; Table 7) [µM] | Rabbit Psoas IC25 ([2]; Table 7) [µM]
C[C@@H](NC(=O)CN1Cc2cc(F)ccc2NC1=O)c1ccc(C#N)cc1 [Compound B203] | 5.48 | 23.26 | 14.19 |  |  | 
COc1ccc2c(n1)CN([C@@H](C)C(=O)N[C@@H](C)c1ccc(F)cc1F)C(=O)N2 [Compound N107] |  |  |  | 100.00 | 100 | 100
C[C@H](NC(=O)CN1C(=O)Nc2ccccc2C12CC2)c1ccc(F)cc1F [Compound B229, N-[(1S)-1-(2,4-Difluorophenyl)ethyl]-2-{2′-oxo-1′H-spiro[cyclopropane-1,4′-quinazolin]-3′-yl}acetamide] | 0.06 | 0.156 | 0.0356 |  |  | 
C[C@@H](NC(=O)CN1Cc2c(ccnc2C#N)NC1=O)c1ncc(F)cc1F [Compound N61] |  |  |  | 100.00 | 100 | 100
C[C@@H](NC(=O)CN1Cc2c(ccc(F)c2F)NC1=O)c1ncc(Cl)cc1F [Compound B81] | 0.09 | 0.4092 | 5.776 |  |  | 
C[C@@H](NC(=O)CN1Cc2c(ccc(F)c2F)NC1=O)c1nc(-c2ccc(F)cn2)no1 [Compound B85] | 0.39 | 28.59 | 4.582 |  |  | 
C[C@@H](C(=O)N[C@@H](CO)c1ccc(F)cc1F)N1Cc2c(Cl)cccc2NC1=O [Compound B212] | 1.52 | 15.17 | 77.91 |  |  | 
O=C(CN1Cc2c(ccc(F)c2F)NC1=O)NC1COCc2cc(F)ccc21 (single isomer, unassigned) [Compound B76] | 0.39 | 0.3465 | 5.359 |  |  | 
C[C@H](NC(=O)CN1Cc2nc(C#N)ccc2NC1=O)c1ccc(F)cc1F [Compound N60, (S)-2-(6-Cyano-2-oxo-1,4-dihydropyrido[3,2-d]pyrimidin-3(2H)-yl)-N-(1-(2,4-difluorophenyl)ethyl)acetamide] |  |  |  | 1.15 | 81.4 | 1.385
O=C(CN1Cc2c(ccc(F)c2F)NC1=O)N[C@@H]1COc2cc(F)cnc21 [Compound B6] | 0.07 | 0.1483 | 0.1232 |  |  | 
C[C@H](NC(=O)CN1C(=O)Nc2ccccc2C1(C)C)c1ccc(F)cc1F [Compound B245] | 0.94 | 11.66 | 9.295 |  |  | 
C[C@@H](NC(=O)CN1Cc2cnccc2NC1=O)c1ccc(C#N)cc1F [Compound N20] |  |  |  | 100.00 | 100 | 0.1315
Cc1nc(C#N)cnc1[C@@H](C)NC(=O)CN1Cc2c(ccc(F)c2F)NC1=O [Compound B54] | 0.11 | 0.9628 | 0.5796 |  |  | 
COc1cnc([C@@H](C)NC(=O)CN2Cc3cc(F)ccc3NC2=O)c(F)c1 [Compound B178] | 3.48 | 100 | 3.38 |  |  | 
O=C(CN1Cc2cnccc2NC1=O)N[C@H]1CCCc2cc(F)cc(F)c21 [Compound N130] |  |  |  | 1.54 | 100 | 0.688
C[C@H](NC(=O)CN1Cc2c(ccc(F)c2F)NC1=O)c1ncncc1F [Compound B110] | 0.04 | 0.5595 | 0.0558 |  |  | 
N#Cc1cnc2c(c1)COC[C@@H]2NC(=O)CN1Cc2c(ccc(F)c2F)NC1=O [Compound B5] | 100.00 | 100 | 4.565 |  |  | 

SMILES | Porcine Atria IC25 (Porcine Atria myofibrils; Table 8) [µM] | Porcine Ventricle IC25 ([1]; Table 8) [µM] | Rabbit Psoas IC25 ([2]; Table 8) [µM] | Porcine Atria IC25 (Porcine Atria myofibrils; Table 7) [µM] | Porcine Ventricle IC25 ([1]; Table 7) [µM] | Rabbit Psoas IC25 ([2]; Table 7) [µM]
C[C@H](NC(=O)[C@H](Cc1ccccc1)N1Cc2nc(F)ccc2NC1=O)c1ccc(F)cc1F [Compound N96] |  |  |  | 100.00 | 100 | 100
Cc1cccc2c1C1(CC1)N(CC(=O)N[C@@H](C)c1ncc(C#N)nc1C)C(=O)N2 [Compound B309] | 10.36 | 10.57 | 2.23 |  |  | 
C[C@@H](NC(=O)CN1Cc2cc(F)cc(C#N)c2NC1=O)c1ccc(C#N)cc1F [Compound B26] | 100.00 | 100 | 100 |  |  | 
CCc1cc(F)cnc1[C@@H](C)NC(=O)CN1Cc2c(ccc(F)c2F)NC1=O [Compound B14] | 0.15 | 0.0844 | 0.0934 |  |  | 
N#Cc1cnc2c(c1)CC[C@H]2NC(=O)CN1C(=O)Nc2ccc(F)cc2C12CC2 [Compound B294] | 46.59 | 39.99 | 1.83 |  |  | 
COc1nccc2c1CN(CC(=O)N[C@@H](C)c1ccc(F)cc1F)C(=O)N2 [Compound N125, N-[(1S)-1-(2,4-Difluorophenyl)ethyl]-2-{5-methoxy-2-oxo-1H,4H-pyrido[4,3-d]pyrimidin-3-yl}acetamide] |  |  |  | 0.68 | 2.663 | 0.0423
N#Cc1nccc2c1CN(CC(=O)N[C@H]1COc3cc(F)cc(F)c31)C(=O)N2 [Compound N8] |  |  |  | 2.20 | 13.21 | 0.3271
O=C(CN1Cc2c(ccc(F)c2F)NC1=O)N[C@@H](CO)c1ncc(F)cc1F [Compound B176] | 0.06 | 0.3872 | 0.08998 |  |  | 
C[C@@H](NC(=O)CN1Cc2c(ccnc2C(F)(F)F)NC1=O)c1ccc(C#N)cc1F [Compound N73] |  |  |  | 100.00 | 100 | 35.6
CC1c2ccccc2NC(=O)N1CC(=O)N[C@@H](CO)c1ccc(F)cc1F (single isomer, unassigned) [Compound B200, N-[(1R)-1-(2,4-difluorophenyl)-2-hydroxyethyl]-2-[(4R*)-4-methyl-2-oxo-1,4-dihydroquinazolin-3-yl]acetamide] | 2.45 | 79.13 | 2.863 |  |  | 
Cc1cc(C#N)ncc1[C@@H](C)NC(=O)CN1Cc2c(ccc(F)c2F)NC1=O [Compound B83] | 0.04 | 0.0519 | 0.0214 |  |  | 
C[C@H](NC(=O)CN1C(=O)Nc2ccc(F)cc2C12CC2)c1ccc(C#N)cn1 [Compound B138] | 1.53 | 100 | 100 |  |  | 
C[C@H](NC(=O)CN1Cc2cc(F)c(F)cc2NC1=O)c1ccc(C#N)cc1F [Compound B45, N-[(1S)-1-(4-cyano-2-fluorophenyl)ethyl]-2-(6,7-difluoro-2-oxo-1,4-dihydroquinazolin-3-yl)acetamide] | 0.02 | 0.0457 | 0.0115 |  |  | 
C[C@@H](NC(=O)CN1Cc2cc(F)c(F)cc2NC1=O)c1ccc(C#N)cc1F [Compound B44] | 0.45 | 0.5278 | 4.901 |  |  | 
C[C@H](NC(=O)CN1Cc2cc(Cl)cnc2NC1=O)c1ncc(F)cc1F [Compound N76] |  |  |  | 100.00 | 100 | 100
C[C@H](NC(=O)CN1C(=O)Nc2cccnc2C12COC2)c1ncc(F)cc1F [Compound N30] |  |  |  | 35.72 | 100 | 5.318
C[C@@H](NC(=O)CN1Cc2c(ccnc2C#N)NC1=O)c1ccc(C#N)cc1F [Compound N22] |  |  |  | 100.00 | 100 | 0.2583
